# Measurements published in US20220117867A1, “ANTIMICROBIAL ACTIVITY OF FATTY ACID ESTERS AND COMBINATIONS THEREOF” (SYMRISE AG, priority 2019, published 2022).
# Read-outs that look alike come from different tables or passages of the source.
# What was measured:
# Assay type in all cases: cell-based
# [1] = system: Staphylococcus epidermidis; assay: Minimum Inhibitory Concentration (MIC) Method A
# Method: (§1) A) Minimum Inhibitory Concentration (MIC) Method A
# (§2) The MIC test is a test on growth inhibition. Estimation of Minimum Inhibitory Concentration (MIC) is executed in 96 well plates. Through the comparison of bacterial growth curves with positive and negative controls via optical density (OD), different concentrations of given test substances are evaluated.
# (§3) Bacteria are cultivated under adjusted conditions based on information of the German Collection of Microorganisms and Cell Cultures (DSMZ) and stored in 50% Glycerol prior to use. Afterwards, the following method was applied:
# (§4) Adding growth medium (according to microorganism) to each well of the microplate.
# (§5) Adding the test-substances in different concentrations, positive controls (water controls only with medium) and negative controls (benchmarks according to organism).
# (§6) Adding the microorganism in a concentration of 10^6 CFU/ml (CFU=colony forming units). Incubation of the microplates at appropriate conditions.
# (§7) Aerobic microorganism: optical density is continuously measured (microplate reader) during incubation.
# (§8) According to resulting growth curves, substance concentrations are labelled either as inhibiting or normal growth and MIC is defined as the lowest concentration where a clear inhibition is visible. Experiments at concentration limits (highest concentration labelled as growth and lowest concentration labelled as inhibiting) are performed at least twice.
# [2] = system: Escherichia coli; assay: Minimum Inhibitory Concentration (MIC) Method A
# Method: as §1, §2, §3, §4, §5, §6, §7, §8
# [3] = system: Aspergillus brasiliensis; assay: Minimum Inhibitory Concentration (MIC) Method A
# Method: as §1, §2, §3, §4, §5, §6, §7, §8
# [4] = system: Staphylococcus aureus; assay: Minimum Inhibitory Concentration (MIC) Method A
# Method: as §1, §2, §3, §4, §5, §6, §7, §8
# [5] = system: human sebaceous glands; assay: Sebum secretion in cultured micro-dissected human sebaceous glands; details: human sebaceous glands of Donor 1 and Donor 2; six days culture; different concentrations; vs untreated control
# Method: Additional tests were performed with human sebaceous glands in order to verify the modulatory activity of a compound on sebum secretion. For this sebaceous glands had been micro-dissected and cultured with medium. The medium without any supplement served as untreated control. Medium with 5 μM Capsaicin served as positive control. Additionally, culture medium was supplemented with different concentrations of 3-hydroxypropyl caprylate. After six days the sebaceous glands were collected and lipids and proteins quantified. The total lipid amount being representative of sebum production was obtained by normalizing the quantified lipids upon the quantified proteins (i.e. mg of lipids/mg of proteins).
# [6] = system: Streptococcus agalactiae; assay: Minimum Inhibitory Concentration (MIC) Method B
# Method: (§9) B) Minimum Inhibitory Concentration (MIC) Method B Test conditions: Evaluation of bactericidal and fungicidal activity in qualitative suspension test (VAH-standard methods, 04-2015). 5 ml of the appropriate dilution of the test product is mixed with 0.1 ml of test suspension and mixed well. After the required action times, the mixture was mixed again. Each 0.1 ml were removed and placed in 5 ml of CSL-bouillon without neutralizing agents.
# [7] = system: Trichophyton rubrum; assay: Minimum Inhibitory Concentration (MIC) Method B
# Method: as §9
# [8] = system: Peptoniphilus lacrimalis; assay: Minimum Inhibitory Concentration (MIC) Method B
# Method: as §9
# [9] = system: Streptococcus mutans; assay: Minimum Inhibitory Concentration (MIC) Method B
# Method: as §9
# [10] = system: Gardnerella vaginalis; assay: Minimum Inhibitory Concentration (MIC) Method B
# Method: as §9
# [11] = system: Fannyhessea vaginae (Atopobium vaginae); assay: Minimum Inhibitory Concentration (MIC) Method B
# Method: as §9
# [12] = system: Prevotella intermedia; assay: Minimum Inhibitory Concentration (MIC) Method A
# Method: (§10) A) Minimum Inhibitory Concentration (MIC) Method A The MIC test is a test on growth inhibition. Estimation of Minimum Inhibitory Concentration (MIC) is executed in 96 well plates. Through the comparison of bacterial growth curves with positive and negative controls via optical density (OD), different concentrations of given test substances are evaluated. Bacteria are cultivated under adjusted conditions based on information of the German Collection of Microorganisms and Cell Cultures (DSMZ) and stored in 50% Glycerol prior to use. Afterwards, the following method was applied: Adding growth medium (according to microorganism) to each well of the microplate. Adding the test-substances in different concentrations, positive controls (water controls only with medium) and negative controls (benchmarks according to organism). Adding the microorganism in a concentration of 10^6 CFU/ml (CFU=colony forming units). Incubation of the microplates at appropriate conditions. Aerobic microorganism: optical density is continuously measured (microplate reader) during incubation. Anaerobic microorganism: incubation in an anaerobic chamber, measurement of the optical density at the end of the incubation, comparison of the results with positive and negative controls. According to resulting growth curves, substance concentrations are labelled either as inhibiting or normal growth and MIC is defined as the lowest concentration where a clear inhibition is visible. Experiments at concentration limits (highest concentration labelled as growth and lowest concentration labelled as inhibiting) are performed at least twice.
# [13] = system: Porphyromonas gingivalis; assay: Minimum Inhibitory Concentration (MIC) Method A
# Method: as §10
# [14] = system: Corynebacterium xerosis; assay: Minimum Inhibitory Concentration (MIC) Method A; details: read-out: MIC
# Method: as §10
# [15] = system: Staphylococcus hominis; assay: Minimum Inhibitory Concentration (MIC) Method A
# Method: as §10
# [16] = system: Candida albicans; assay: Minimum Inhibitory Concentration (MIC) Method A
# Method: as §10
# [17] = system: Fusobacterium nucleatum; assay: Minimum Inhibitory Concentration (MIC) Method A
# Method: as §10
# [18] = system: Escherichia coli; assay: Preservative Efficacy Test (method C); details: E. coli; for Colony counts: 1% test substance in o/w emulsion; for Relative colony counts: relative to inoculum = 1.0000
# Method: (§11) C) Preservative Efficacy Test
# (§12) Test conditions: Sample (1% test substance in adequate formulation (o/w emulsion)) was inoculated with 0.1 ml of the microbial suspensions, homogenized, and incubated at 20° C.-25° C. Colony count was determined after 2, 7, 14, and 28 days of incubation through plating on adequate solid medium.
# (§13) 3-hydroxypropyl caprylate was tested in a potential formulation against the microorganisms Escherichia coli, Pseudomonas aeruginosa, Staphylococcus aureus, and Candida albicans using method C. Resulting colony counts are depicted in Table 4.
# [19] = system: Pseudomonas aeruginosa; assay: Preservative Efficacy Test (method C); details: P. aeruginosa; for Colony counts: 1% test substance in o/w emulsion; for Relative colony counts: relative to inoculum = 1.0000
# Method: as §11, §12, §13
# [20] = system: Candida albicans; assay: Preservative Efficacy Test (method C)
# Method: as §11, §12, §13
# [21] = system: Staphylococcus aureus; assay: Preservative Efficacy Test (method C); details: S. aureus; for Colony counts: 1% test substance in o/w emulsion; for Relative colony counts: relative to inoculum = 1.0000
# Method: as §11, §12, §13
# [22] = system: Escherichia coli; assay: Minimum Inhibitory Concentration (MIC) Method B, DIN 58940; Synergy Index according to Kull; details: Method B (Example 5), E. coli, single substance
# Method: (§14) B) Minimum Inhibitory Concentration (MIC) Method B
# as §9, with “Test” for “B) Minimum Inhibitory Concentration (MIC) Method B Test”
# (§15) In order to calculate the synergy index with MIC values, the Kull equation (I) was used as follows:
# (§16) SI=(MICmixture×PA)/MICA+(MICmixture×PB)/MICB (I)
# (§17) The synergistic activity of 3-hydroxypropyl caprylate and glyceryl caprylate on several bacterial and fungal reference strains for application in either Deodorant application or as preservative was determined by measuring minimum inhibitory concentrations (MIC values) according to DIN 58940 and method B (method section above).
# [23] = system: Staphylococcus hominis; assay: as above; details: Method B (Example 5), S. hominis, single substance
# Method: as §14
# as §9, with “Test” for “B) Minimum Inhibitory Concentration (MIC) Method B Test”
# as §15, §16, §17
# [24] = system: Aspergillus brasiliensis; assay: as above; details: Method B (Example 5), A. brasiliensis, single substance
# Method: as §14
# as §9, with “Test” for “B) Minimum Inhibitory Concentration (MIC) Method B Test”
# as §15, §16, §17
# [25] = system: Epidermophyton floccosum; assay: as above; details: single substance
# Method: as §14
# (§18) 5 ml of the appropriate dilution of the test product is mixed with 0.1 ml of test suspension and mixed well. After the required action times, the mixture was mixed again. Each 0.1 ml were removed and placed in 5 ml of CSL-bouillon without neutralizing agents.
# as §15, §16
# SI is the Synergy Index according to Kull
# MICA is the MIC value for Substance A
# MICB is the MIC value for Substance B
# MICmixture is the MIC value for the mixture of substances A and B
# PA is the proportion of the substance A in the mixture
# PB is the proportion of the substance B in the mixture
# [26] = system: Corynebacterium xerosis; assay: as above; details: Method B (Examples 3, 5, 6), C. xerosis, single substance
# Method: as §14, §18, §15, §16
smiles,measurement,setting,value
CCCCCCCC(=O)OCCCO [3-hydroxypropyl caprylate],MIC,[1]; read-out: MIC,500 µg/mL
same,MIC,[2]; read-out: MIC,1000 µg/mL
same,MIC,[3]; read-out: MIC,1000 µg/mL
same,MIC,[4]; read-out: MIC,500 µg/mL
same,"relative change in total lipids (mg of lipids/mg of proteins), representative of sebum production",[5],concentration dependent reduction of total lipids
same,MIC,[6],10000 µg/mL
same,MIC,[7],500 µg/mL
same,MIC,[8],1000 µg/mL
same,MIC,[9],5000 µg/mL
same,MIC,[10],500 µg/mL
same,MIC,[11],500 µg/mL
same,MIC,[12],125 µg/mL
same,MIC,[13],250 µg/mL
same,MIC,[14],500 µg/mL
same,MIC,[15],1000 µg/mL
same,MIC,[16],500 µg/mL
same,MIC,[17],250 µg/mL
same,Colony counts,"[18]; Day 2, inoculum 4500000",15 cfu/g formulation
same,Relative colony counts,[18]; Day 2,0.0000
same,Colony counts,[18]; Day 7,>10 cfu/g formulation
same,Relative colony counts,[18]; Day 7,0.0000
same,Colony counts,[18]; Day 14,>10 cfu/g formulation
same,Relative colony counts,[18]; Day 14,0.0000
same,Colony counts,[18]; Day 28,>10 cfu/g formulation
same,Relative colony counts,[18]; Day 28,0.0000
same,Colony counts,"[19]; Day 2, inoculum 4400000",>10 cfu/g formulation
same,Relative colony counts,[19]; Day 2,0.0000
same,Colony counts,[19]; Day 7,>10 cfu/g formulation
same,Relative colony counts,[19]; Day 7,0.0000
same,Colony counts,[19]; Day 14,>10 cfu/g formulation
same,Relative colony counts,[19]; Day 14,0.0000
same,Colony counts,[19]; Day 28,>10 cfu/g formulation
same,Relative colony counts,[19]; Day 28,0.0000
same,Colony counts,"[20]; Day 2, 1% test substance in o/w emulsion, inoculum 4200000",330000 cfu/g formulation
same,Relative colony counts,"[20]; Day 2, relative to inoculum = 1.0000",0.0786
same,Colony counts,"[20]; Day 7, 1% test substance in o/w emulsion",>10 cfu/g formulation
same,Relative colony counts,"[20]; Day 7, relative to inoculum = 1.0000",0.0000
same,Colony counts,"[20]; Day 14, 1% test substance in o/w emulsion",>10 cfu/g formulation
same,Relative colony counts,"[20]; Day 14, relative to inoculum = 1.0000",0.0000
same,Colony counts,"[20]; Day 28, 1% test substance in o/w emulsion",>10 cfu/g formulation
same,Relative colony counts,"[20]; Day 28, relative to inoculum = 1.0000",0.0000
same,Colony counts,"[21]; Day 2, inoculum 3500000",250000 cfu/g formulation
same,Relative colony counts,[21]; Day 2,0.0714 fraction of inoculum
same,Colony counts,[21]; Day 7,>10 cfu/g formulation
same,Relative colony counts,[21]; Day 7,0.0000 fraction of inoculum
same,Colony counts,[21]; Day 14,>10 cfu/g formulation
same,Relative colony counts,[21]; Day 14,0.0000 fraction of inoculum
same,Colony counts,[21]; Day 28,>10 cfu/g formulation
same,Relative colony counts,[21]; Day 28,0.0000 fraction of inoculum
same,MIC,[22],1000 µg/mL
same,MIC,[23],1000 µg/mL
same,MIC,[24],1000 µg/mL
same,MIC,[25],500 µg/mL
"CC(C)(O)CCc1ccccc1 [Dimethyl Phenylbutanol, reference compound]",MIC,[1],1000 ppm
same,MIC,[2],2500 ppm
same,MIC,[3],2500 ppm
same,MIC,[4],1000 ppm
C=CCCCCCCCCC(=O)OCCCO [3-hydroxypropyl undecylenate],MIC,[1]; read-out: MIC,64 µg/mL
same,MIC,[3]; read-out: MIC,500 µg/mL
same,MIC,[4]; read-out: MIC,500 µg/mL
same,MIC,[14],250 µg/mL
"CCCCCCC(O)CO (stereo not shown) [Caprylyl Glycol, 1,2-Octanediol]",MIC,[26],2500 µg/mL
same,MIC,[25],5000 µg/mL
"CCCC(O)CO (stereo not shown) [Pentylene Glycol, 1,2-Pentanediol]",MIC,[25],15000 µg/mL
